In the supplement of paper PMC11208160:

Test: recombinant UMI read abundance after kanamycin selection (control-corrected) (log10(CPM+1)); higher = more efficient recombination; extreme values may be limits of the assay; sequences stand for … in AGTGCAGAGAAAATCGGCCAGTTTTCTCTGCCTGCAGTCCGCATGCCGTGGGACCCCTTGGGTTCTAACCTGTTGCCTAGATTTATGCAGCGGACTGCCTTTCTCCCAAAGTGATAAACCGG…AGGTTGGTTTCACT; site = the 11-nt donor
How it was run: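 Each donor and donor-binding-loop pair was tracked by a 12-nt UMI on a plasmid carrying a promoterless kanamycin gene. With a second plasmid supplying a fixed target and T7-inducible IS621 bridge recombinase, the pool was plated in Escherichia coli on IPTG (0.07 mM) plus kanamycin or unselected. Sequencing of recombinant UMIs across the donor–target junction gave counts expressed as log10(CPM+1) after replicate averaging and control-derived scaling.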
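Also: IS621 bridge recombinase in Escherichia coli cells against a fixed T5 target plasmid.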

Sequence	recombinant UMI read abundance (log10)
GGAGTGGCATGGACCGGTTTTCCCGGTAATCCGTATTTGGC (site GGAGTGGCTGC)	2
GGAGTGGCATGGACCGGTTTTCCCGGTAATCCGTATTTGGC (site GGAGTGGCTTC)	0.328
GGAGTGGCATGGACCGGTTTTCCCGGTAATCCGTATTTGGT (site AGAGTGGCTAC)	0.902
GGAGTGGCATGGACCGGTTTTCCCGGTAATCCGTATTTGGT (site CGAGTGGCTAC)	0.437
GGAGTGGCATGGACCGGTTTTCCCGGTAATCCGTATTTGGT (site GAAGTGGCTAC)	0.126
GGAGTGGCATGGACCGGTTTTCCCGGTAATCCGTATTTGGT (site GCAGTGGCTAC)	0.497
GGAGTGGCATGGACCGGTTTTCCCGGTAATCCGTATTTGGT (site GGAATGGCTAC)	0.749
GGAGTGGCATGGACCGGTTTTCCCGGTAATCCGTATTTGGT (site GGACTGGCTAC)	0.0487
GGAGTGGCATGGACCGGTTTTCCCGGTAATCCGTATTTGGT (site GGAGAGGCTAC)	0.524
GGAGTGGCATGGACCGGTTTTCCCGGTAATCCGTATTTGGT (site GGAGCGGCTAC)	0.00445
GGAGTGGCATGGACCGGTTTTCCCGGTAATCCGTATTTGGT (site GGAGGGGCTAC)	0.461
GGAGTGGCATGGACCGGTTTTCCCGGTAATCCGTATTTGGT (site GGAGTAGCTAC)	0.606
GGAGTGGCATGGACCGGTTTTCCCGGTAATCCGTATTTGGT (site GGAGTCGCTAC)	0.014
GGAGTGGCATGGACCGGTTTTCCCGGTAATCCGTATTTGGT (site GGAGTGACTAC)	0.976
GGAGTGGCATGGACCGGTTTTCCCGGTAATCCGTATTTGGT (site GGAGTGCCTAC)	0.377
GGAGTGGCATGGACCGGTTTTCCCGGTAATCCGTATTTGGT (site GGAGTGGCTAA)	0.0703
GGAGTGGCATGGACCGGTTTTCCCGGTAATCCGTATTTGGT (site GGAGTGGCTAC)	0.575
GGAGTGGCATGGACCGGTTTTCCCGGTAATCCGTATTTGGT (site GGAGTGGCTAG)	1.26
GGAGTGGCATGGACCGGTTTTCCCGGTAATCCGTATTTGGT (site GGAGTGGCTAT)	0.592
GGAGTGGCATGGACCGGTTTTCCCGGTAATCCGTATTTGGT (site GGAGTGGCTCC)	0.0114
GGAGTGGCATGGACCGGTTTTCCCGGTAATCCGTATTTGGT (site GGAGTGGCTGC)	0.537
GGAGTGGCATGGACCGGTTTTCCCGGTAATCCGTATTTGGT (site GGAGTGGCTTC)	0.0104
GGAGTGGCATGGACCGGTTTTCCCGGTAATCCGTATTTGGT (site GGAGTGTCTAC)	1.1
GGAGTGGCATGGACCGGTTTTCCCGGTAATCCGTATTTGGT (site GGAGTTGCTAC)	0
GGAGTGGCATGGACCGGTTTTCCCGGTAATCCGTATTTGGT (site GGATTGGCTAC)	0.458

Sequence	recombinant UMI read abundance (log10)
GGAGTGGCATGGACCGGTTTTCCCGGTAATCCGTATTTGGT (site GGCGTGGCTAC)	0.0051
GGAGTGGCATGGACCGGTTTTCCCGGTAATCCGTATTTGGT (site GGGGTGGCTAC)	0.0193
GGAGTGGCATGGACCGGTTTTCCCGGTAATCCGTATTTGGT (site GGTGTGGCTAC)	0.564
GGAGTGGCATGGACCGGTTTTCCCGGTAATCCGTATTTGGT (site GTAGTGGCTAC)	0.294
GGAGTGGCATGGACCGGTTTTCCCGGTAATCCGTATTTGGT (site TGAGTGGCTAC)	0.32
GGATCATCATGGACCGGTTTTCCCGGTAATCCGTATTTGAT (site CGATCATCTAG)	0
GGATCATCATGGACCGGTTTTCCCGGTAATCCGTATTTGAT (site GGATCATCTAT)	0.00412
GGATCATCATGGACCGGTTTTCCCGGTAATCCGTATTTGCT (site AGATCATCTAG)	0
GGATCATCATGGACCGGTTTTCCCGGTAATCCGTATTTGCT (site CGATCATCTAG)	0.511
GGATCATCATGGACCGGTTTTCCCGGTAATCCGTATTTGCT (site GGATCATCTAG)	1.59
GGATCATCATGGACCGGTTTTCCCGGTAATCCGTATTTGCT (site TGATCATCTAG)	0.91
GGATCCCCATGGACCGGTTTTCCCGGTAATCCGTATTTGCT (site GGATCCCCTAG)	0.0066
GGATCGACATGGACCGGTTTTCCCGGTAATCCGTATTTGTT (site AGATCGACTAA)	0.0171
GGATCGACATGGACCGGTTTTCCCGGTAATCCGTATTTGTT (site CGATCGACTAA)	0.00751
GGATCGACATGGACCGGTTTTCCCGGTAATCCGTATTTGTT (site GGATCGACTAA)	0.7
GGATCGACATGGACCGGTTTTCCCGGTAATCCGTATTTGTT (site TGATCGACTAA)	0.00972
GGATCGGCATGGACCGGTTTTCCCGGTAATCCGTATTTGAC (site GGATCGGCTGT)	1.87
GGATGATCATGGACCGGTTTTCCCGGTAATCCGTATTTGCT (site CGATCATCTAG)	0
GGATGATCATGGACCGGTTTTCCCGGTAATCCGTATTTGCT (site GGATGATCTAG)	2.36
GGATTATCATGGACCGGTTTTCCCGGTAATCCGTATTTGAT (site GGATTATCTAT)	1.82
GGATTGACATGGACCGGTTTTCCCGGTAATCCGTATTTGCC (site GGATAGACTGG)	1.42
GGATTGACATGGACCGGTTTTCCCGGTAATCCGTATTTGCC (site GGATCGACTGG)	1.06
GGATTGACATGGACCGGTTTTCCCGGTAATCCGTATTTGCC (site GGATGGACTGG)	0
GGATTGACATGGACCGGTTTTCCCGGTAATCCGTATTTGCC (site GGATTGACTGG)	1.98
GGCAAACCATGGACCGGTTTTCCCGGTAATCCGTATTTGAA (site GGCAAACCTTT)	0

Sequence	recombinant UMI read abundance (log10)
GGCAAACCATGGACCGGTTTTCCCGGTAATCCGTATTTGAA (site GGCAACCCTTT)	0
GGCAAACCATGGACCGGTTTTCCCGGTAATCCGTATTTGAA (site GGCAAGCCTTT)	0.00636
GGCAAACCATGGACCGGTTTTCCCGGTAATCCGTATTTGAA (site GGCAATCCTTT)	0
GGCAACCCATGGACCGGTTTTCCCGGTAATCCGTATTTGGA (site GGCAACCCTTC)	0.0138
GGCAATCCATGGACCGGTTTTCCCGGTAATCCGTATTTGAC (site GGCAATCCTAT)	0.00921
GGCAATCCATGGACCGGTTTTCCCGGTAATCCGTATTTGAC (site GGCAATCCTCT)	0.00258
GGCAATCCATGGACCGGTTTTCCCGGTAATCCGTATTTGAC (site GGCAATCCTGT)	0.665
GGCAATCCATGGACCGGTTTTCCCGGTAATCCGTATTTGAC (site GGCAATCCTTT)	0
GGCAATCCATGGACCGGTTTTCCCGGTAATCCGTATTTGTA (site GGCAATCCTTA)	0.264
GGCAATCCATGGACCGGTTTTCCCGGTAATCCGTATTTGTA (site GGCAATCCTTC)	0.00948
GGCAATCCATGGACCGGTTTTCCCGGTAATCCGTATTTGTA (site GGCAATCCTTG)	0
GGCAATCCATGGACCGGTTTTCCCGGTAATCCGTATTTGTA (site GGCAATCCTTT)	0
GGCACAGCATGGACCGGTTTTCCCGGTAATCCGTATTTGAA (site GGCACAGCTTT)	1.87
GGCAGAGCATGGACCGGTTTTCCCGGTAATCCGTATTTGCC (site GGCAGAGCTGG)	0
GGCCAACCATGGACCGGTTTTCCCGGTAATCCGTATTTGTT (site GGCCAACCTAA)	0.00804
GGCCAACCATGGACCGGTTTTCCCGGTAATCCGTATTTGTT (site GGCCACCCTAA)	0.0125
GGCCAACCATGGACCGGTTTTCCCGGTAATCCGTATTTGTT (site GGCCAGCCTAA)	0.0207
GGCCAACCATGGACCGGTTTTCCCGGTAATCCGTATTTGTT (site GGCCATCCTAA)	0.00632
GGCCACCCATGGACCGGTTTTCCCGGTAATCCGTATTTGCG (site GGCCACCCTCG)	0.00687
GGCCACCCATGGACCGGTTTTCCCGGTAATCCGTATTTGCT (site GGCCACCCTAA)	0.0723
GGCCACCCATGGACCGGTTTTCCCGGTAATCCGTATTTGCT (site GGCCACCCTAC)	0.0158
GGCCACCCATGGACCGGTTTTCCCGGTAATCCGTATTTGCT (site GGCCACCCTAG)	0
GGCCACCCATGGACCGGTTTTCCCGGTAATCCGTATTTGCT (site GGCCACCCTAT)	0.00294
GGCCACCCATGGACCGGTTTTCCCGGTAATCCGTATTTGGT (site GGCCACCCTAA)	0.113
GGCCACCCATGGACCGGTTTTCCCGGTAATCCGTATTTGGT (site GGCCACCCTAC)	0.00471
